According to ChEMBL document CHEMBL1212738, “Phenotypic and genotypic characterization of Enterobacteriaceae with decreased susceptibility to carbapenems: results from large hospital-based surveillance studies in China” (2010):

How the values were obtained:
Escherichia coli [1] = experiment: Antimicrobial activity against carbapenem-resistant Escherichia coli PU96 deficient in TEM-1, CTX-M-14, CMY-2, ompC/F by CLSI method; format: functional
Escherichia coli [2] = experiment: Antimicrobial activity against carbapenem-resistant Escherichia coli PU102 deficient in TEM-1, CTX-M-14, CMY-2, aac(6')-Ib, ompC DEc, ompF by CLSI method; format: functional
Klebsiella pneumoniae [3] = experiment: Antimicrobial activity against carbapenem-resistant Klebsiella pneumoniae ZJ70 deficient in KPC-2, SHV-11, CTX-M-14, ompK35/36 by CLSI method; format: functional
Klebsiella pneumoniae [4] = experiment: Antimicrobial activity against carbapenem-resistant Klebsiella pneumoniae SX67 deficient in SHV-2, CTX-M-14, DHA-1, qnrB6/S1, aac(6')-Ib-cr, ompK35/36 by CLSI method; format: functional
Enterobacter cloacae [5] = experiment: Antimicrobial activity against carbapenem-resistant Enterobacter cloacae GX56 deficient in ompC and expressing low levels of ompF DE by CLSI method; format: functional
Enterobacter cloacae [6] = experiment: Antimicrobial activity against carbapenem-resistant Enterobacter cloacae RJ94 deficient in IMP-4, TEM-1, CTX-M-3, ompC by CLSI method; format: functional
Escherichia coli [7] = experiment: Antimicrobial activity against Escherichia coli ZJ87T expressing KPC-2 by CLSI method; format: functional
Citrobacter freundii [8] = experiment: Antimicrobial activity against Citrobacter freundii SZ63 expressing IMP-4, qnrS1by CLSI method; format: functional
Klebsiella pneumoniae [9] = experiment: Antimicrobial activity against Klebsiella pneumoniae GZ64 expressing IMP-4, ompK35/36 by CLSI method; format: functional
Enterobacter cloacae [10] = experiment: Antimicrobial activity against carbapenem-resistant Enterobacter cloacae SZ92 deficient in IMP-4, TEM-1, CTX-M-14, DHA-1, qnrB10/B4-like, aac(6')-Ib, ompC by CLSI method; format: functional
Klebsiella pneumoniae [11] = experiment: Antimicrobial activity against carbapenem-resistant Klebsiella pneumoniae PU4 deficient in SHV-1, DHA-1, ompK35/36 by CLSI method; format: functional
Klebsiella pneumoniae [12] = experiment: Antimicrobial activity against Klebsiella pneumoniae ZJ68T expressing CTX-M-15 by CLSI method; format: functional
Klebsiella pneumoniae [13] = experiment: Antimicrobial activity against Klebsiella pneumoniae ZJ71T expressing KPC-2 by CLSI method; format: functional
Escherichia coli [14] = experiment: Antimicrobial activity against Escherichia coli PU101T expressing CMY-2 by CLSI method; format: functional
Enterobacter cloacae [15] = experiment: Antimicrobial activity against carbapenem-resistant Enterobacter cloacae SZ93 deficient in ompC by CLSI method; format: functional
Escherichia coli [16] = experiment: Antimicrobial activity against Escherichia coli C600 transconjugant SZ62T expressing IMP-4, qnrS1by CLSI method
Escherichia coli [17] = experiment: Antimicrobial activity against Escherichia coli PU60T expressing CMY-2 by CLSI method; format: functional
Escherichia coli [18] = experiment: Antimicrobial activity against Escherichia coli HX74T expressing CTX-M-3 by CLSI method; format: functional
Klebsiella pneumoniae [19] = experiment: Antimicrobial activity against carbapenem-resistant Klebsiella pneumoniae GZ84 deficient in SHV-11, aac(6')-Ib-cr, ompK35 by CLSI method; format: functional
Klebsiella pneumoniae [20] = experiment: Antimicrobial activity against Klebsiella pneumoniae WH97 expressing SHV-33, aac(6')-Ib, ompK35 DE by CLSI method; format: functional
Klebsiella pneumoniae [21] = experiment: Antimicrobial activity against Klebsiella pneumoniae GZ64T expressing IMP-4 by CLSI method; format: functional
Klebsiella pneumoniae [22] = experiment: Antimicrobial activity against Klebsiella pneumoniae FZ47T expressing IMP-8, TEM-1, CTX-M-14, qnrB2, aac(6')-Ib by CLSI method; format: functional
Klebsiella pneumoniae [23] = experiment: Antimicrobial activity against carbapenem-resistant Klebsiella pneumoniae FZ47 deficient in IMP-8, TEM-1, SHV-11, CTX-M-14, qnrB2, aac(6')-Ib, ompK35/36 by CLSI method; format: functional
Klebsiella pneumoniae [24] = experiment: Antimicrobial activity against carbapenem-resistant Klebsiella pneumoniae PU104 deficient in TEM-1, SHV-11, CTX-M-15, qnrS1, ompK35/36 by CLSI method; format: functional
Citrobacter freundii [25] = experiment: Antimicrobial activity against Citrobacter freundii SZ62 expressing IMP-4, TEM-1, CMY-2, qnrS1, aac(6')-Ib-cr by CLSI method; format: functional
Klebsiella pneumoniae [26] = experiment: Antimicrobial activity against carbapenem-resistant Klebsiella pneumoniae FZ49 deficient in IMP-8, TEM-1, SHV-11, CTX-M-14, qnrB2, aac(6')-Ib, ompK35/36 by CLSI method; format: functional
Escherichia coli [27] = experiment: Antimicrobial activity against carbapenem-resistant Escherichia coli PU60 deficient in TEM-1, CMY-2, ompC/F by CLSI method; format: functional
Escherichia coli [28] = experiment: Antimicrobial activity against Escherichia coli C600 transconjugant WH76T expressing IMP-4, TEM-1, CTX-M-3, qnrS1 by CLSI method
Klebsiella pneumoniae [29] = experiment: Antimicrobial activity against Klebsiella pneumoniae CY1T expressing SHV-11, DHA-1 by CLSI method; format: functional
Klebsiella pneumoniae [30] = experiment: Antimicrobial activity against carbapenem-resistant Klebsiella pneumoniae PU105 deficient TEM-1, SHV-12, CTX-M-14, DHA-1, qnrB10/B4-like, aac(6')-Ib-cr, ompK35/36 by CLSI method; format: functional
Klebsiella pneumoniae [31] = experiment: Antimicrobial activity against carbapenem-resistant Klebsiella pneumoniae PU3 deficient in DHA-1, aac(6')-Ib-cr, ompK35/36 by CLSI method; format: functional
Klebsiella pneumoniae [32] = experiment: Antimicrobial activity against carbapenem-resistant Klebsiella pneumoniae ZJ71 deficient in KPC-2, TEM-1, SHV-11, CTX-M-14, ompK35 by CLSI method; format: functional
Enterobacter cloacae [33] = experiment: Antimicrobial activity against carbapenem-resistant Enterobacter cloacae NJ89 deficient in CTX-M-14, ompC/F by CLSI method; format: functional
Escherichia coli [34] = experiment: Antimicrobial activity against carbapenem-resistant Escherichia coli PU101 deficient in TEM-1, CTX-M-14, CMY-2, ompC by CLSI method; format: functional
Klebsiella pneumoniae [35] = experiment: Antimicrobial activity against carbapenem-resistant Klebsiella pneumoniae CY1 deficient in SHV-11, DHA-1, ompK35/36 by CLSI method; format: functional
Klebsiella pneumoniae [36] = experiment: Antimicrobial activity against Klebsiella pneumoniae ZJ99T expressing KPC-2, CTX-M-3, qnrS1 by CLSI method; format: functional
Klebsiella pneumoniae [37] = experiment: Antimicrobial activity against Klebsiella pneumoniae ZJ99 expressing KPC-2, CTX-M-3, qnrS1, ompK35 DE by CLSI method; format: functional
Escherichia coli [38] = experiment: Antimicrobial activity against Escherichia coli C600 transconjugant XJ81T expressing TEM-1, SHV-12, aac(6')-Ib by CLSI method
Klebsiella pneumoniae [39] = experiment: Antimicrobial activity against Klebsiella pneumoniae WH76 expressing IMP-4, TEM-1, SHV-14, CTX-M-3, qnrS1 by CLSI method; format: functional
Enterobacter cloacae [40] = experiment: Antimicrobial activity against carbapenem-resistant Enterobacter cloacae NJ88 deficient in CTX-M-14, ompC/F by CLSI method; format: functional
Enterobacter cloacae [41] = experiment: Antimicrobial activity against carbapenem-resistant Enterobacter cloacae NJ90 deficient in CTX-M-14, ompC/F by CLSI method; format: functional

Measured: MIC

C[C@@H](O)[C@H]1C(=O)N2C(C(=O)O)=C(S[C@@H]3CN[C@H](C(=O)N(C)C)C3)[C@H](C)[C@H]12 [MEROPENEM]
8 µg/mL: Escherichia coli [1] | Escherichia coli [2] | Enterobacter cloacae [6] | Escherichia coli [7] | Klebsiella pneumoniae [9] | Enterobacter cloacae [10] | Klebsiella pneumoniae [24] | Escherichia coli [27]
0.064 µg/mL: Escherichia coli [18]
1 µg/mL: Klebsiella pneumoniae [19] | Klebsiella pneumoniae [22]
2 µg/mL: Klebsiella pneumoniae [4] | Klebsiella pneumoniae [20] | Klebsiella pneumoniae [21] | Klebsiella pneumoniae [23] | Klebsiella pneumoniae [26]
256 µg/mL: Klebsiella pneumoniae [3]
4 µg/mL: Enterobacter cloacae [5] | Citrobacter freundii [8] | Klebsiella pneumoniae [11] | Klebsiella pneumoniae [13] | Escherichia coli [16] | Citrobacter freundii [25]
0.125 µg/mL: Enterobacter cloacae [15]
0.032 µg/mL: Klebsiella pneumoniae [12] | Escherichia coli [14] | Escherichia coli [17]

C[C@@H](O)[C@H]1C(=O)N2C(C(=O)O)=C(S[C@@H]3CN[C@H](C(=O)Nc4cccc(C(=O)O)c4)C3)[C@H](C)[C@H]12
16 µg/mL: Klebsiella pneumoniae [32] | Escherichia coli [7]
8 µg/mL: Klebsiella pneumoniae [36] | Klebsiella pneumoniae [19] | Klebsiella pneumoniae [37] | Klebsiella pneumoniae [23]
4 µg/mL: Citrobacter freundii [8] | Klebsiella pneumoniae [13] | Escherichia coli [16] | Klebsiella pneumoniae [20] | Klebsiella pneumoniae [21] | Klebsiella pneumoniae [22] | Citrobacter freundii [25] | Klebsiella pneumoniae [26]
2 µg/mL: Escherichia coli [28] | Klebsiella pneumoniae [39]
128 µg/mL: Escherichia coli [1] | Klebsiella pneumoniae [30] | Enterobacter cloacae [33] | Escherichia coli [34] | Enterobacter cloacae [40] | Enterobacter cloacae [41]
0.008 µg/mL: Klebsiella pneumoniae [29] | Escherichia coli [38]
64 µg/mL: Escherichia coli [2] | Klebsiella pneumoniae [31] | Klebsiella pneumoniae [24] | Escherichia coli [27]
0.25 µg/mL: Escherichia coli [14]
0.064 µg/mL: Klebsiella pneumoniae [12] | Enterobacter cloacae [15] | Escherichia coli [17] | Escherichia coli [18]
32 µg/mL: Klebsiella pneumoniae [4] | Enterobacter cloacae [5] | Enterobacter cloacae [6] | Klebsiella pneumoniae [9] | Enterobacter cloacae [10] | Klebsiella pneumoniae [11] | Klebsiella pneumoniae [35]
> 256 µg/mL: Klebsiella pneumoniae [3]
